The target in this assay is T1, HCV-NS5b (Hepatitis C virus genotype 1b, UniProt Q9WMX2).
T1 construct: (His)6 (C); made in house; host or cells: XL-1 cells (E. coli), IPTG-inducible plasmid, nickel-NTA purification
Kind of assay: HCV-NS5b enzyme assay (incorporation of radiolabeled UTP). The assay is classed as biochemical. Particulars: for inhibition at 33 µM: enzyme inhibition at compound concentration of 33 uM; for inhibition at 100 µM: read-out: % inh@100, enzyme inhibition at compound concentration of 100 uM. The procedure, abridged: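 His6-tagged NS5b lacking the C-terminal 21 residues, expressed in XL-1 and Ni-NTA purified. Reaction at pH 7.5 with 5 mM MgCl2, 10 μM each NTP including [3H]-UTP and biotinylated HCV heteropolymeric template, 2 h at 37° C; SPA read-out; % inhibition at 100 and 33 uM versus no-compound control, background subtracted.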

Turning to `O=C(O)c1ccc2c(c1)nc(-c1ccc3nc(-c4ccc(Oc5ccc(Cl)cc5)cc4Cl)ccc3c1)n2C1CCCCC1` [Compound 492, 2-{2-[2-chloro-4-(4-chloro-phenoxy)-phenyl]-quinolin-6-yl}-1-cyclohexyl-1H-benzoimidazole-5-carboxylic acid], the inhibition at 33 µM worked out at 99.2% and the inhibition at 100 µM was determined as 100%.

With `COc1ccc2occ(-c3ccc4cc(-c5nc6cc(C(=O)O)ccc6n5C5CCCCC5)ccc4n3)c2c1` [Compound 493, 1-cyclohexyl-2-[2-(5-methoxy-benzofuran-3-yl)-quinolin-6-yl]-1H-benzoimidazole-5-carboxylic acid], the inhibition at 33 µM was determined as 101% and the inhibition at 100 µM is 100%.

For the compound `CCOc1cc(-c2ccccc2)nc2ccc(-c3nc4cc(C(=O)O)ccc4n3C3CCCCC3)cc12` [Compound 494, 1-cyclohexyl-2-(4-ethoxy-2-phenyl-quinolin-6-yl)-1H-benzoimidazole-5-carboxylic acid], the inhibition at 33 µM worked out at 94.8% and the inhibition at 100 µM worked out at 99.2%.

With `COc1cc(OC)cc(-c2ccc3cc(-c4nc5cc(C(=O)O)ccc5n4C4CCCCC4)ccc3n2)c1` [Compound 495, 1-cyclohexyl-2-[2-(3,5-dimethoxy-phenyl)-quinolin-6-yl]-1H-benzoimidazole-5-carboxylic acid], the inhibition at 33 µM stood at 99.8% and the inhibition at 100 µM worked out at 101%.

As to `O=C(O)c1ccc2c(c1)nc(-c1ccc3nc(-c4ccccc4)cc(Oc4ccccc4)c3c1)n2C1CCCCC1` [Compound 496, 1-cyclohexyl-2-(4-phenoxy-2-phenyl-quinolin-6-yl)-1H-benzoimidazole-5-carboxylic acid], the inhibition at 33 µM was determined as 101% and the inhibition at 100 µM amounted to 101%.

Take `CC(NC(=O)c1ccc2cc(-c3nc4cc(C(=O)O)ccc4n3C3CCCCC3)ccc2n1)C(N)=O` (stereo not shown) [Compound 497, 2-[2-(1-Carbamoylethylcarbamoyl)quinolin-6-yl]-1-cyclohexyl-1H-benzimidazole-5-carboxylic acid]: the inhibition at 33 µM was 65.5% and the inhibition at 100 µM was found to be 88.5%.

On to `Cc1cc(-c2ccccc2)nc2ccc(-c3nc4cc(C(=O)O)ccc4n3C3CCCCC3)cc12` [Compound 498, 1-Cyclohexyl-2-(4-methyl-2-phenyl-quinolin-6-yl)-1H-benzoimidazole-5-carboxylic acid], for which the inhibition at 33 µM was determined as 98.5% and the inhibition at 100 µM came out at 100%.

For the compound `COc1ccc(-c2ccccc2)c(-c2ccc3cc(-c4nc5cc(C(=O)O)ccc5n4C4CCCCC4)ccc3n2)c1` [Compound 499, 1-Cyclohexyl-2-[2-(4-methoxy-biphen-2-yl)-quinolin-6-yl]-1H-benzoimidazole-5-carboxylic acid], the inhibition at 33 µM was determined as 101% and the inhibition at 100 µM is 99.7%.

`O=C(O)c1ccc2c(c1)nc(-c1ccc3nc(-c4cc(O)ccc4-c4ccc(Cl)cc4)ccc3c1)n2C1CCCCC1` [Compound 500, 2-[2-(4′-Chloro-4-hydroxy-biphen-2-yl)-quinolin-6-yl]-1-cyclohexyl-1H-benzoimidazole-5-carboxylic acid]: the inhibition at 33 µM was 101% and the inhibition at 100 µM was determined as 101%.

For the compound `CC(=O)Nc1ccc(-c2ccc3cc(-c4nc5cc(C(=O)O)ccc5n4C4CCCCC4)ccc3n2)cc1` [Compound 501, 2-[2-(4-acetylamino-phenyl)-quinolin-6-yl]-1-cyclohexyl-1H-benzoimidazole-5-carboxylic acid], the inhibition at 33 µM amounted to 90.6% and the inhibition at 100 µM is 96.8%.

For the compound `CC1(C)C(CC(=O)O)CC1c1ccc2cc(-c3nc4cc(C(=O)O)ccc4n3C3CCCCC3)ccc2n1` (stereo not shown) [Compound 502, 2-[2-(3-carboxymethyl-2,2-dimethyl-cyclobutyl)-quinolin-6-yl]-1-cyclohexyl-1H-benzoimidazole-5-carboxylic acid], the inhibition at 33 µM turned out to be 99% and the inhibition at 100 µM is 100%.

Turning to `O=C(O)c1ccc2c(c1)nc(-c1ccc3nc(-c4cccc(OCC(=O)N5CCCC5)c4)ccc3c1)n2C1CCCCC1` [Compound 503, 1-cyclohexyl-2-{2-[3-(2-oxo-2-pyrrolidin-1-yl-ethoxy)-phenyl]-quinolin-6-yl}-1H-benzoimidazole-5-carboxylic acid], the inhibition at 33 µM was 95.8% and the inhibition at 100 µM came out at 97%.

As for `CN(C)CCNC(=O)c1ccc(-c2ccccc2)c(-c2ccc3cc(-c4nc5cc(C(=O)O)ccc5n4C4CCCCC4)ccc3n2)c1` [Compound 504, 1-Cyclohexyl-2-{2-[4-(2-dimethylamino-ethylcarbamoyl)-biphen-2-yl]-quinolin-6-yl}-1H-benzoimidazole-5-carboxylic acid], the inhibition at 33 µM came out at 98.3% and the inhibition at 100 µM was 100%.

As for `Cc1oc(-c2ccc(Cl)cc2)cc1-c1ccc2cc(-c3nc4cc(C(=O)O)ccc4n3C3CCCCC3)ccc2n1` [Compound 505, 2-{2-[5-(4-chloro-phenyl)-2-methyl-furan-3-yl]-quinolin-6-yl}-1-cyclohexyl-1H-benzoimidazole-5-carboxylic acid], the inhibition at 33 µM came out at 99.7% and the inhibition at 100 µM turned out to be 102%.

In the case of `CCOCCOc1ccc(-c2ccc(Cl)cc2)c(-c2ccc3cc(-c4nc5cc(C(=O)O)ccc5n4C4CCCCC4)ccc3n2)c1` [Compound 507, 2-{2-[4′-Chloro-4-(2-ethoxy-ethoxy)-biphen-2-yl]-quinolin-6-yl}-1-cyclohexyl-1H-benzoimidazole-5-carboxylic acid], the inhibition at 33 µM came to 101% and the inhibition at 100 µM worked out at 101%.

On to `O=C(O)c1ccc2c(c1)nc(-c1ccc3nc(-c4ccc(Cl)c(Cl)c4)ccc3c1)n2C1CCCCC1` [Compound 508, 1-cyclohexyl-2-[2-(3,4-dichloro-phenyl)-quinolin-6-yl]-1H-benzoimidazole-5-carboxylic acid], for which the inhibition at 33 µM was found to be 98.9% and the inhibition at 100 µM came out at 98.9%.

For `O=C(O)c1ccc2c(c1)nc(-c1ccc3nc(-c4ccccc4)cc(Oc4ccc5ccc(O)cc5c4)c3c1)n2C1CCCCC1` [Compound 509, 1-cyclohexyl-2-[4-(7-hydroxy-naphthalen-2-yloxy)-2-phenyl-quinolin-6-yl]-1H-benzoimidazole-5-carboxylic acid], the inhibition at 33 µM stood at 100% and the inhibition at 100 µM came to 101%.

Turning to `O=C(O)c1ccc2c(c1)nc(-c1ccc3nc(C(=O)Nc4ccc(Cl)cc4)ccc3c1)n2C1CCCCC1` [Compound 510, 2-[2-(4-Chlorophenylcarbamoyl)quinolin-6-yl]-1-cyclohexyl-1H-benzimidazole-5-carboxylic acid], the inhibition at 33 µM is 99.5% and the inhibition at 100 µM was 100%.

Consider `CC(C)[C@H](NC(=O)c1ccc2cc(-c3nc4cc(C(=O)O)ccc4n3C3CCCCC3)ccc2n1)C(N)=O` [Compound 511, 2-[2-(1-Carbamoyl-2-methylpropylcarbamoyl)quinolin-6-yl]-1-cyclohexyl-1H-benzimidazole-5-carboxylic acid], for which the inhibition at 33 µM turned out to be 78.4% and the inhibition at 100 µM stood at 95%.

Consider `C[C@@H](O)[C@H](NC(=O)c1ccc2c(c1)nc(-c1ccc3nc(-c4ccccc4)cnc3c1)n2C1CCCCC1)C(=O)O` [Compound 512, 2-{[1-Cyclohexyl-2-(2-phenyl-quinoxalin-6-yl)-1H-benzoimidazole-5-carbonyl]-amino}-3-hydroxy-butyric acid], for which the inhibition at 33 µM amounted to 78.9% and the inhibition at 100 µM stood at 97.9%.

`CC(C)C[C@H](NC(=O)c1ccc2c(c1)nc(-c1ccc3nc(-c4ccccc4)cnc3c1)n2C1CCCCC1)C(=O)O` [Compound 513, 2-{[1-Cyclohexyl-2-(2-phenyl-quinoxalin-6-yl)-1H-benzoimidazole-5-carbonyl]-amino}-4-methyl-pentanoic acid]: the inhibition at 33 µM stood at 93.2% and the inhibition at 100 µM is 95.9%.

For the compound `O=C(c1ccc2c(c1)nc(-c1cc3ccc(-c4ccccc4-c4ccc(Cl)cc4)nc3cc1F)n2C1CCCCC1)N1CCC(O)CC1` [Compound 514, {2-[2-(4′-Chloro-biphen-2-yl]-7-fluoro-quinolin-6-yl]-1-cyclohexyl-1H-benzoimidazol-5-yl}-(4-hydroxy-piperidin-1-yl)-methanone], the inhibition at 33 µM amounted to 89.6% and the inhibition at 100 µM worked out at 91.9%.

For `CSCC[C@H](NC(=O)c1ccc2c(c1)nc(-c1ccc3nc(-c4ccccc4)cnc3c1)n2C1CCCCC1)C(=O)O` [Compound 515, 2-{[1-Cyclohexyl-2-(2-phenyl-quinoxalin-6-yl)-1H-benzoimidazole-5-carbonyl]-amino}-4-methylsulfanyl-butyric acid], the inhibition at 33 µM is 81.9% and the inhibition at 100 µM came to 88.3%.

Regarding `O=C(N[C@@H](Cc1c[nH]c2ccc(O)cc12)C(=O)O)c1ccc2c(c1)nc(-c1ccc3cc(-c4ccccc4)cnc3c1)n2C1CCCCC1` [Compound 516, 2-{[1-cyclohexyl-2-(3-phenyl-quinolin-7-yl)-1H-benzoimidazole-5-carbonyl]-amino}-3-(5-hydroxy-1H-indol-3-yl)-propionic acid], the inhibition at 33 µM stood at 99.3% and the inhibition at 100 µM amounted to 100%.

As to `CC(C)[C@H](NC(=O)c1ccc2c(c1)nc(-c1ccc3nc(-c4ccccc4)cnc3c1)n2C1CCCCC1)C(=O)O` [Compound 517, 2-{[1-Cyclohexyl-2-(2-phenyl-quinoxalin-6-yl)-1H-benzoimidazole-5-carbonyl]-amino}-3-methyl-butyric acid], the inhibition at 33 µM came out at 81% and the inhibition at 100 µM is 97.8%.

As to `NC(=O)C[C@H](NC(=O)c1ccc2c(c1)nc(-c1ccc3nc(-c4ccccc4)cnc3c1)n2C1CCCCC1)C(=O)O` [Compound 518, 2-{[1-Cyclohexyl-2-(2-phenyl-quinoxalin-6-yl)-1H-benzoimidazole-5-carbonyl]-amino}-succinamic acid], the inhibition at 33 µM was 76% and the inhibition at 100 µM was 97.8%.

The values above are taken from patent publication US7511145B2 (Genelabs Technologies, Inc., priority 2003, dated 2009).
